Results as given in the NIST ThermoML archive (doi:10.1021/je7001946).

Legend:
[1] = 101.3 kPa, Liquid
[2] = mn = molality of the nth substance listed, in mol/kg; settings: 101.3 kPa, Liquid; for speed of sound: Pulse-echo method

CC#N [acetonitrile]
[1]
Settings	mass density
288.15 K	787.303 kg/m3 [middle of 5 runs]
293.15 K	781.923 kg/m3 [middle of 5 runs]
298.15 K	776.525 kg/m3 [middle of 5 runs]
303.15 K	771.097 kg/m3 [middle of 5 runs]
308.15 K	765.64 kg/m3 [middle of 5 runs]
313.15 K	760.151 kg/m3 [middle of 5 runs]
323.15 K	749.07 kg/m3 [middle of 5 runs]

Settings	speed of sound [m/s]
[1], 298.15 K, Pulse-echo method	1278.3

CC#N [acetonitrile] + [Br-].[Br-].[Mn+2]
[2], m2 = 0
Settings	mass density [kg/m3]
288.15 K	787.299
293.15 K	781.923
298.15 K	776.525
303.15 K	771.097
308.15 K	765.64
313.15 K	760.148
323.15 K	749.055

[Cl][Co][Cl] [cobalt chloride] + CC#N
[2]
Settings	mass density, 288.15 K [kg/m3]	mass density, 293.15 K [kg/m3]	mass density, 298.15 K [kg/m3]	mass density, 303.15 K [kg/m3]	mass density, 308.15 K [kg/m3]	mass density, 313.15 K [kg/m3]	mass density, 323.15 K [kg/m3]	speed of sound, 298.15 K [m/s]
m1 = 0.08764	795.418	790.014	784.59	779.137	773.654	768.139	756.997	1279.8
m1 = 0.1171	798.185	792.779	787.348	781.889	776.401	770.881	759.736	1280.5
m1 = 0.146	800.89	795.475	790.038	784.571	779.078	773.545	762.939	1281.1
m1 = 0.1743	803.599	798.184	792.742	787.274	781.773	776.24	765.073	1281.8
m1 = 0.2031	806.356	800.934	795.487	790.011	784.51	778.973	767.796	1282.5
m1 = 0.2318	809.121	803.697	798.244	792.763	787.256	781.714	770.528	1283.2
m1 = 0.26	811.836	806.407	800.953	795.467	789.954	784.407	773.206	1284
m1 = 0.2873	814.493	809.058	803.595	798.109	792.59	787.039	775.843	1284.8

CC#N [acetonitrile] + [Br][Co][Br]
[2], m2 = 0
Settings	mass density [kg/m3]	speed of sound [m/s]
288.15 K	787.315	–
293.15 K	781.939	–
298.15 K	776.538	1278.3
303.15 K	771.112	–
308.15 K	765.653	–
313.15 K	760.164	–
323.15 K	749.073	–
